System: distal small bowel gene expression
Test: RNA sequencing / transcriptional analysis of small bowel 56 days after ICR (2′-FL signature response)
Assay type: in vivo, mouse
Description: Luminal small bowel contents were expressed into AllProtect Tissue Reagent (Qiagen Inc, CA). Bacterial DNA was extracted using the AllPrep DNA/RNA Mini Kit (Qiagen Inc, CA), according to kit instructions and prior to sequencing (described below). Small bowel tissue samples for RNA were placed into RNA Later (Life Technologies, NY). RNA extraction was accomplished following Qiagen RNeasy Plus Kit instruction (Qiagen Inc, CA). All nucleic acid samples were then stored at -80 Celsius until sequenced (described below). Transcriptional analysis was carried out on resected and harvested small bowel samples obtained from operated mice taken to 8 weeks. Murine RNA sequencing libraries were prepared from approximately 1.5 μg RNA using the TruSeq RNA Sample Preparation Kit (Illumina, Calif.) and sequenced using the HiSeq 2000 Sequencing System (Illumina, Calif.) with single-end 50 bp reads. Following removal of primers and barcodes, sequences were aligned to the mm10 genome using reference annotations from UCSC (Rosenbloom et al. (2015) Nucleic acids research 43: […]-681) (n=36,186 entities). Aligned reads were quantified and used to compute reads per kilobase per million mapped reads (RPKM); raw counts were then normalized using the DESeq algorithm and each harvested sample was baselined to its own resected sample. A filter was applied to the data, requiring at least three reads in all samples of at least one of the four experimental conditions (n=14,489 entities). The data discussed in this publication have been deposited in NCBI's Gene Expression Omnibus and are accessible through NCBI Gene Expression Omnibus (GEO) Series accession number GSE72590. Edgar et al. (2002) Nucleic acids research 30: 207-210. In order to characterize the impact of 2'-FL supplementation while accounting for the effect of ileoecal resection, a t-test was applied between resected and harvested samples within control and experimental animals. Significance was set at a p-value of ≤0.05 and a fold change of 3, which generated 2,576 differentially regulated entities across two comparisons. Gene set unions and intersections of the control and experimental gene sets were identified through Venn diagrams. From the master list, the gene list specific to animals supplemented with 2'-FL were removed in order to identify genes differentially regulated only by ICR (n=546 entities); this gene set characterizes the adaptive response. Further, the 2'-FL response (n=2,030 entities) was identified by removing the adaptive response signature described above from the master list, leaving only genes regulated by 2'-FL supplementation after ICR which were not found in the non-supplemented adaptive response. Heatmaps were generated using hierarchical clustering with the Pearson's Centered distance metric and the average linkage rule; both entities and samples were clustered. All genomic analyses described above were performed in Strand NGS (Strand Life Sciences, CA). Gene list functional enrichment was initially discovered using ToppFun, a member of the ToppGene Suite. Chen et al. (2009) Nucleic acids research 37: […]-311. No statistical correction was selected. Gene lists were further analyzed using ClueGO, a plugin for Cytoscape designed to decipher functionally grouped gene ontology and pathway annotation networks. Bindea et al. (2009) Bioinformatics 25: 1091-1093. At the time of data analysis, the annotation files were updated from sources to Jan. 1, 2015. “GO Term Fusion” was enabled to manage ontologic term redundancy and network specificity was set to medium. Results were restricted to pathways with p≤0.05 using Benjamini-Hochberg correction and Kappa scoring was set to 0.4. Biocyc annotations were assigned a rectangle, gene ontology biologic processes were assigned an ellipse, and […] annotations were assigned a diamond shape. No meaning was assigned to size or color. […]

[1] = 2′-FL signature response, harvested vs resected small bowel, 8 weeks

SMILES: C[C@@H]1O[C@@H](O[C@H]2[C@H](O[C@H]3[C@H](O)[C@@H](O)C(O)O[C@@H]3CO)O[C@H](CO)[C@H](O)[C@@H]2O)[C@@H](O)[C@H](O)[C@@H]1O (stereo partly drawn) [2′-FL, 2′-fucosyllactose]
- Fgf15 fold change (FC) [1]: −64.6
- Fmr1nb fold change (FC) [1]: 12.7
- Hemt1 fold change (FC) [1]: 15.4
- Irs2 fold change (FC) [1]: −43.6
- Map3k12 fold change (FC) [1]: 16.2
- Mcpt2 fold change (FC) [1]: 13.4
- P2ry4 fold change (FC) [1]: −22.2
- Rnf150 fold change (FC) [1]: −20.4
- Tmem202 fold change (FC) [1]: 18.0
- Ttc28 fold change (FC) [1]: −24.2
- Fold Change (Pre- to Post-op) (0610040B10Rik): 4.168
- Fold Change (Pre- to Post-op) (1700019L03Rik): 4.251
- Fold Change (Pre- to Post-op) (1700020N01Rik): 4.446
- Fold Change (Pre- to Post-op) (1810011O10Rik): 4.443
- Fold Change (Pre- to Post-op) (1810059H22Rik): 4.23
- Fold Change (Pre- to Post-op) (2010308F09Rik): 14.34
- Fold Change (Pre- to Post-op) (3300005D01Rik): 4.41
- Fold Change (Pre- to Post-op) (9430038I01Rik): 6.474
- Fold Change (Pre- to Post-op) (Atp5j2): 4.445
- Fold Change (Pre- to Post-op) (Atpif1): 4.145
- Fold Change (Pre- to Post-op) (Bambi-ps1): 4.353
- Fold Change (Pre- to Post-op) (Casq1): 4.38
- Fold Change (Pre- to Post-op) (Cd320): 4.215
- Fold Change (Pre- to Post-op) (Coa4): 4.375
- Fold Change (Pre- to Post-op) (Cox7a1): 6.411
- Fold Change (Pre- to Post-op) (Dgcr6): 4.237
- Fold Change (Pre- to Post-op) (Dnah2): 4.392
- Fold Change (Pre- to Post-op) (Dynlt1b): 4.376
- Fold Change (Pre- to Post-op) (Dynlt1c): 4.148
- Fold Change (Pre- to Post-op) (Elof1): 4.343
- Fold Change (Pre- to Post-op) (Fam216a): 4.147
- Fold Change (Pre- to Post-op) (Gm5485): 4.139
- Fold Change (Pre- to Post-op) (Gm6251): 4.383
- Fold Change (Pre- to Post-op) (Gm8274): 4.331
- Fold Change (Pre- to Post-op) (Gm10433): 4.377
- Fold Change (Pre- to Post-op) (Gm10451): 4.182
- Fold Change (Pre- to Post-op) (Hemt1): 15.36
- Fold Change (Pre- to Post-op) (Hint1): 4.482
- Fold Change (Pre- to Post-op) (Hscb): 4.227
- Fold Change (Pre- to Post-op) (Hspb2): 4.189
- Fold Change (Pre- to Post-op) (Ift20): 4.337
- Fold Change (Pre- to Post-op) (Med11): 4.235
- Fold Change (Pre- to Post-op) (Mpc2): 4.128
- Fold Change (Pre- to Post-op) (Ndufa7): 4.362
- Fold Change (Pre- to Post-op) (Ndufaf5): 4.338
- Fold Change (Pre- to Post-op) (Ndufb7): 4.217
- Fold Change (Pre- to Post-op) (Oaz1): 4.347
- Fold Change (Pre- to Post-op) (Ormdl1): 4.184
- Fold Change (Pre- to Post-op) (Pstk): 4.142
- Fold Change (Pre- to Post-op) (Rabl5): 4.448
- Fold Change (Pre- to Post-op) (Rbp1): 4.364
- Fold Change (Pre- to Post-op) (Rilpl2): 4.235
- Fold Change (Pre- to Post-op) (Rpl34): 4.37
- Fold Change (Pre- to Post-op) (Rps15a-ps4): 4.372
- Fold Change (Pre- to Post-op) (Rps24): 4.131
- Fold Change (Pre- to Post-op) (Rps25): 4.218
- Fold Change (Pre- to Post-op) (S100a6): 4.237
- Fold Change (Pre- to Post-op) (Sec22a): 4.221
- Fold Change (Pre- to Post-op) (Sh2d1b1): 4.118
- Fold Change (Pre- to Post-op) (Smim4): 4.229
- Fold Change (Pre- to Post-op) (Smim6): 4.424
- Fold Change (Pre- to Post-op) (Tm6sf1): 4.173
- Fold Change (Pre- to Post-op) (Tnfsf11): 4.335
- Fold Change (Pre- to Post-op) (Wfdc17): 4.382
- Fold Change (Pre- to Post-op) (Zfp433): 4.119
- Fold Change (Pre- to Post-op) (Zswim7): 4.475
- Fold Change (Pre- to Post-op) (gene AI414108): −9.671
- Fold Change (Pre- to Post-op) (gene Agap2): −9.801
- Fold Change (Pre- to Post-op) (gene Ankrd52): −10.58
- Fold Change (Pre- to Post-op) (gene Apba1): −18.88
- Fold Change (Pre- to Post-op) (gene Atp1a2): −18.47
- Fold Change (Pre- to Post-op) (gene Atp1b2): −18.71
- Fold Change (Pre- to Post-op) (gene Bcl9l): −10.08
- Fold Change (Pre- to Post-op) (gene Car3): −9.901
- Fold Change (Pre- to Post-op) (gene Chd7): −11.26
- Fold Change (Pre- to Post-op) (gene D830031N03Rik): −15.57
- Fold Change (Pre- to Post-op) (gene Ebf1): −10.39
- Fold Change (Pre- to Post-op) (gene Fgf15): −64.61
- Fold Change (Pre- to Post-op) (gene Flt1): −15.79
- Fold Change (Pre- to Post-op) (gene Fscn1): −10.73
- Fold Change (Pre- to Post-op) (gene Gltscr1): −13.3
- Fold Change (Pre- to Post-op) (gene Irs2): −43.6
- Fold Change (Pre- to Post-op) (gene Ldoc1l): −10.25
- Fold Change (Pre- to Post-op) (gene Leprel1): −9.903
- Fold Change (Pre- to Post-op) (gene Lyst): −9.938
- Fold Change (Pre- to Post-op) (gene Nav2): −12.39
- Fold Change (Pre- to Post-op) (gene Nfix): −16.561
- Fold Change (Pre- to Post-op) (gene Nos1ap): −10.38
- Fold Change (Pre- to Post-op) (gene P2ry4): −22.22
- Fold Change (Pre- to Post-op) (gene Parvb): −9.684
- Fold Change (Pre- to Post-op) (gene Peg3): −15.37
- Fold Change (Pre- to Post-op) (gene Plin1): −16.34
- Fold Change (Pre- to Post-op) (gene Polr2a): −18.45
- Fold Change (Pre- to Post-op) (gene Ptpru): −10.01
- Fold Change (Pre- to Post-op) (gene Rgs9): −9.821
- Fold Change (Pre- to Post-op) (gene Rnf150): −20.41
- Fold Change (Pre- to Post-op) (gene Scd1): −20.28
- Fold Change (Pre- to Post-op) (gene Sema3g): −18.02
- Fold Change (Pre- to Post-op) (gene Shank3): −15.22
- Fold Change (Pre- to Post-op) (gene Soga1): −14.4
- Fold Change (Pre- to Post-op) (gene Spen): −14.44
- Fold Change (Pre- to Post-op) (gene Tenm3): −14.72
- Fold Change (Pre- to Post-op) (gene Tiam1): −15.28
- Fold Change (Pre- to Post-op) (gene Tmem151a): −10.06
- Fold Change (Pre- to Post-op) (gene Tomm6os): −12.41
- Fold Change (Pre- to Post-op) (gene Trerf1): −9.926
- Fold Change (Pre- to Post-op) (gene Trim56): −9.711
- Fold Change (Pre- to Post-op) (gene Ttc28): −24.22
- Fold Change (Pre- to Post-op) (gene Zbed6): −9.794
- Fold Change (Pre- to Post-op) (gene Zfp609): −11.22
- number of downregulated entities of the 2′-FL signature response (small bowel 56 days after ICR): 1,247
